Test results: patent publication US5594012A, “Amino acid derivatives and anti-active oxygen agents” (Ajinomoto Co., Inc., priority 1992, dated 1997)

Assays:
UV absorptive activities = format: physicochemical; conditions: 100 μM in ethanol (water or DMSO added if not soluble)
Method: Test for UV Absorptive Activities
A solution of each of the test compounds shown in Table 10 below in ethanol was prepared for the final concentration to be 100 μM. If test compounds were not soluble in ethanol alone, water or DMSO was added.
The absorption spectrum of each sample was determined using a spectrophotometer "Model 320" (manufactured by Hitachi).

hydroxyl radical [1] = experiment: Inhibitory effects on hydroxyl radical formation (2) (iron (II)/hydrogen peroxide, DMPO, ESR); format: biochemical; conditions: 306 μM test compound; 306 μM iron (II) sulphate; 75 mM DMPO; 306 μM hydrogen peroxide; ESR within 40 seconds
Method: Test for Inhibitory Effects on Hydroxyl Radical Formation (2)
To 75 μl of a solution of each of the test compounds shown in Table 9 below in 0.1M phosphate buffer (hereinafter referred to as "PBS-3") were successively added 75 μl of an aqueous solution of iron (II) sulphate, 20 μl of an aqueous solution of 5,5-dimethyl-1-pyrroline-N-oxide "DMPO" (manufactured by Dojin Chemical) and 75 μl of an aqueous solution of hydrogen peroxide. […] If test compounds were not soluble in PBS-3 alone, an aqueous sodium hydroxide solution or N,N-dimethyl formamide was added.
This solution was subjected to determination for the hydroxy radical immediately (within 40 seconds), using an electron spin resonance (ESR) meter "JES-FR80S" (manufactured by Nippon Denshi).
[formula] E1 : Signal magnitude when a test compound was added. E2 : Signal magnitude when a test compound was not added.

hydroxyl radical [2] = experiment: Inhibitory effects on hydroxyl radical formation (1) (xanthine/xanthine oxidase, deoxyribose); format: biochemical; conditions: 360 μM test compound; 36 μM ammonium iron (III) sulphate; xanthine oxidase 0.7 unit/ml; 37° C., 15 minutes; pH 7.4 to 7.8
Method: Test for Inhibitory Effects on Hydroxyl Radical Formation (1)
The test was carried out in accordance with the method described in FEBS Letters, Vol. 128, page 347, 1981. Namely, to 1.1 ml of a solution of 54 mM sodium chloride in 9 mM phosphate buffer (hereinafter referred to as "PBS-I") were successively added 140 μl of a solution of each of the test compounds shown in Table 6 below in PBS-1, […] of a 1 mM solution of ammonium iron (III) sulphate in hydrochloric acid, 140 μl of a solution of xanthine (manufactured by Tokyo Kasei Co.) in PBS-1, 14 μl a solution of deoxyribose (Sigma) in PBS-1 and xanthine oxidase (Sigma). The final concentrations of the test compounds, ammonium iron (III) sulphate, xanthine, deoxyribose and xanthine oxidase were adjusted to be 360 μM, 36 μM, 70 μM, 700 μM and 0.7 unit/ml, respectively. If test compounds were not soluble in PBS-1 alone, aqueous sodium hydroxide solution or DMSO was added. The pH of the solution was adjusted to 7.4 to 7.8.
. The percent inhibition of the hydroxyl radical was calculated from the following equation (2) and the results are shown in Table 6. [formula] F1 : Intensity of fluorescence when a test compound was added. F2 : Intensity of fluorescence when a test compound was added but deoxyribose was not added.
F3 : Intensity of fluorescence when a test compound was not added.
F4 : Intensity of fluorescence when neither test compound nor deoxyribose was added.

[3] = system: lipid peroxidation in homogenate of murine swiss 3T3 cells; experiment: Inhibitory effects on UV-induced lipid peroxidation (homogenate of murine swiss 3T3 cells); format: biochemical; conditions: 1 mM test compound; UVB 0.4 mW/cm^2, 90 min; pH 7.2 to 7.8; TBA, 535 nm
Method: Test for Inhibitory Effects on UV-induced Lipid Peroxidation
The test was carried out on the basis of the methods described in Biochim. Biophys. […] Namely, 12 μl of an aqueous sodium hydroxide solution of each of the test compounds shown in Table 5 below was added to 1.2 ml of a homogenate of murine swiss 3T3 cells (i.e. a kind of murine skin cells) prepared by a conventional method in 20 mM phosphate buffer (protein content: 1.5 to 1.8 mg/ml). The final concentration of the test compounds was adjusted to be 1 mM and the pH of the solution was adjusted to 7.2 to 7.8. If test compounds were not soluble in an aqueous sodium hydroxide solution, they were dissolved in N,N-dimethyl sulfoxide (DMSO).
This solution (1.1 ml) was irradiated with UV rays (0.4 mW/cm^2, 90 min.) using a UVB lamp "EB-280C/J" (manufactured by Spectronics). To an aliquot (1.0 ml) of this solution were successively added 0.2 ml of an aqueous solution of sodium dodecyl sulfate and 1.0 ml of an aqueous solution of thiobarbituric acid/trichloroacetic acid/hydrochloric acid, and the mixed solution was heated in a boiling water bath for 15 minutes. After ice-cooling, the solution was extracted with 1.0 ml of 1-butanol to prepare a sample for determining peroxide lipid as absorbance at a wavelength of 535 nm using a spectrophotometer "Model 320" (manufactured by Hitachi).
(§1) [formula] A1 : Absorbance when a test compound was added. A2 : Absorbance when a test compound was not added.
A3 : Absorbance when a test compound was not added and UV rays were not irradiated.

[4] = system: lipid peroxidation in murine brain homogenate; experiment: Inhibitory effects on lipid peroxidation (murine brain homogenate); format: biochemical, murine (C57 black mouse); conditions: 30 μM test compound; no added iron; 37° C., 60 minutes; pH 7.2 to 7.8
Method: (§2) The test was carried out according to the method described in Method in Enzymol., Vol. 52, page 302, 1978. A C57 black mouse was killed by cervical dislocation, and the whole brain extracted from the dissected head was washed with 20 mM phosphate buffer (hereinafter referred to as "PBS-2"). Then, the brain was added with PBS-2 in an amount of 19 times its wet weight, and the mixture was disrupted and homogenized with a homogenizer "Polytron" (manufactured by Kinematica). The thus prepared 5% solution of the murine brain homogenate in PBS-2 was diluted 1:5 with fresh PBS-2. To 800 μl of the resulting 1% solution of the murine brain homogenate in PBS-2 (protein content: 0.8 to 1.0 mg/ml) were successively added 100 μl of a PBS-2 solution of each of the test compounds shown in Table 7 below and 100 μl of an aqueous solution of ammonium iron (II) sulphate. The final concentration of the test compounds and ammonium iron (II) sulphate were adjusted to be 1 mM and 100 μM, respectively. If test compounds were not soluble in PBS-2 alone, an aqueous sodium hydroxide solution or DMSO was added. The pH of the solution was adjusted to 7.2 to 7.8.
Test for Inhibitory Effects on Lipid Peroxidation
To 900 μl of a 5% solution of the murine brain homogenate in PBS-2 prepared in the same way as described in Test Example 3 was added 100 μl of a PBS-2 solution of each of the test compounds shown in Table 8 below. The final concentration of the test compounds was adjusted to be 30 μM. If test compounds were not soluble in PBS-2 alone, an aqueous solution of sodium hydroxide or DMSO was added. The pH of the solution was adjusted to 7.2 to 7.8.
The solution after heated at 37° C. for 60 minutes was added with 1.0 ml of an aqeuous solution of thiobarbituric acid/trichloroacetic acid/hydrochloric acid, and the mixture was heated in a boiling water bath for 15 minutes. After ice-cooling, the solution was extracted with 2.0 ml of 1-butanol to prepare a sample for determining the lipid peroxide in the same way as described in Test Example 1. […] [formula] A4 : Absorbance when a test compound was added. A5 : Absorbance when a test compound was not added.
A6 : Abosrbance when a test compound was not added and heating at 37° C. for […] was not carried out.

[5] = system: lipid peroxidation in murine brain homogenate; experiment: Inhibitory effects on metal ion-induced lipid peroxidation (murine brain homogenate); format: biochemical, murine (C57 black mouse); conditions: 1 mM test compound; 100 μM ammonium iron (II) sulphate; 37° C., 30 minutes; pH 7.2 to 7.8
Method: Test for Inhibitory Effects on Metal Ion-induced Lipid Peroxidation
as §2
The solution after heated at 37° C. for 30 minutes was added with 2.0 ml of an aqueous solution of thiobarbituric acid/trichloroacetic acid/hydrochloric acid, and the mixture was heated in a boiling water bath for 15 minutes. After ice-cooling, the solution was extracted with 1.0 ml of 1-butanol to prepare a sample for determining the peroxide lipid in the same way as described in Test Example 1.
as §1
A3 : Absorbance when a test compound was not added and heating at 37° C. for 30 minutes was not carried out.

- Wavelength (nm) of maximum absorption (UV absorptive activities): 307 nm
- Maximum molar extinction coefficient (UV absorptive activities; UVA and UVB regions): 10,000
- % Inhibition of hydroxyl radical (hydroxyl radical [2]): 19%
SMILES: O=C(O)C(CO)N=Cc1c(O)ccc2ccccc12 (stereo not shown) [Synthesis Example 28]
- % Inhibition of hydroxy radicals (hydroxyl radical [1]): 56%
- % Inhibition of UV-induced lipid peroxidation [3]: 20%
- % Inhibition of lipid peroxidation [4]: 70%
- % Inhibition of metal ion-induced lipid peroxidation [5]: 80%
